# Test results from patent publication US7718651B2, “Inhibitors of FtsZ and uses thereof” (priority 2002, dated 2010).
# System: M. tuberculosis H37Rv
# Assay: microbe, parasite or virus in culture
# Assay type: cell-based
# Conditions: not given
row,SMILES,% Inh
1,CCOC(=O)Nc1cc(N[C@@H](C)C(=O)c2ccc(O)cc2)c([N+](=O)[O-])c(N)n1 [Compound A305],−2%

# Same assay, conditions: M. tuberculosis H37Rv, screen concentration 12.5 g/ml [sic], Table 8
row,SMILES,% Inh
1,CCOC(=O)Nc1cc(NC(C)CCCN(CC)CC)c([N+](=O)[O-])c(N)n1.Cl (centres unmarked) [Compound A269],0%
2,CCOC(=O)Nc1cc(NC(c2ccccc2)c2ccccc2)c(N)c(N)n1 [Compound A117],40%
3,CCOC(=O)Nc1cc(N)c2nc[nH]c2n1 [Compound A217],0%
4,CCOC(=O)Nc1cc(NCC(O)CN(C)C)c([N+](=O)[O-])c(N)n1 (centres unmarked) [Compound A232],0%
5,CCOC(=O)Nc1cc2[nH]c(-c3ccc(O)cc3)nc2c(N)n1 [Compound A152],13%
6,CCOC(=O)Nc1cc(Cl)c([N+](=O)[O-])c(N)n1 [Compound A106],49%
7,CCOC(=O)Nc1cc(NC(c2ccccc2)c2ccccc2)c2nc[nH]c2n1 [Compound A216],0%
8,CCOC(=O)Nc1cc(NCCc2ccccc2)c(N)c(N)n1.Cl.Cl [Compound A95],59%
9,CCOC(=O)Nc1cc2c(nc(SCc3ccccc3)n2/N=C/c2ccccc2)c(N)n1 [Compound A132],24%
10,Nc1nc(NC(=O)OCc2ccccc2)cc(Cl)c1[N+](=O)[O-] [Compound A286],0%
11,CCOC(=O)Nc1cc(N[C@H](C)[C@@H](O)c2ccccc2)c(N)c(N)n1 [Compound A310],−15%
12,CCOC(=O)Nc1cc(NC(C)C(=O)c2ccccc2)c([N+](=O)[O-])c(N)n1 (centres unmarked) [Compound A161],9%
13,CCOC(=O)Nc1cc2c(c(N)n1)N=C(c1ccc(Cl)cc1)CO2 [Compound A226],0%
14,CCOC(=O)Nc1cc(NC/C(CN(C)c2ccccc2)=N/O)c([N+](=O)[O-])c(N)n1 [Compound A127],30%
15,CCOC(=O)Nc1cc(NCC(O)CN)c([N+](=O)[O-])c(NC(=O)OCC)n1 (centres unmarked) [Compound A271],0%
16,CCOC(=O)Nc1cc2ncc(CN(C)c3ccccc3)nc2c(N)n1 [Compound A78],71%
17,CCOC(=O)Nc1cc2c(c(N)n1)N=C(c1ccccc1)CS2 [Compound A77],71%
18,CCOC(=O)Nc1cc(NC(c2ccccc2)c2ccccc2)c([N+](=O)[O-])c(Cl)n1 [Compound A299],0%
19,CCOC(=O)Nc1cc2[nH]c(-c3cccc4ccccc34)nc2c(N(CCc2ccccc2)Cc2ccccc2)n1 [Compound A18],98%
20,CCCCC(Nc1cc(NC(=O)OCC)nc(N)c1N)C(C)O (centres unmarked) [Compound A174],5%
21,CCOC(=O)Nc1cc2ncc(C(=O)N(C)c3ccccc3)nc2c(N)n1 [Compound A123],31%
22,CCOC(=O)Nc1cc(Nc2ccc(Cl)cc2)c([N+](=O)[O-])c(N)n1 [Compound A256],0%
23,CCOC(=O)Nc1cc(NCC(O)CN(C)c2ccc(C)cc2)c([N+](=O)[O-])c(N)n1.Cl (centres unmarked) [Compound A62],86%
24,CCOC(=O)Nc1cc2c(c(N)n1)N=C(c1cccc(OC)c1)CS2 [Compound A68],79%
25,CCOC(=O)Nc1cc2oc(-c3ccc(Cl)cc3)nc2c(N(CCc2ccccc2)Cc2ccccc2)n1 [Compound A137],21%

row,SMILES,% Inh
1,CCOC(=O)Nc1cc(OCC)c2nc(-c3ccccc3)c(-c3ccccc3)nc2n1 [Compound A38],95%
2,CCOC(=O)Nc1cc(NC/C(=N/O)c2ccccc2)c([N+](=O)[O-])c(N)n1 [Compound A235],0%
3,CCOC(=O)Nc1cc(NC/C(=N/O)c2ccc(OC)c(OC)c2OC)c([N+](=O)[O-])c(N)n1 [Compound A212],0%
4,CCOC(=O)Nc1cc2[nH]c(C)nc2c(N(CCc2ccccc2)Cc2ccccc2)n1 [Compound A69],71%
5,CCOC(=O)Nc1cc(NC/C(=N/O)c2ccc(Cl)cc2Cl)c([N+](=O)[O-])c(N)n1 [Compound A58],89%
6,CCOC(=O)Nc1cc(NCCCCc2ccccc2)c([N+](=O)[O-])c(N)n1 [Compound A90],62%
7,CCOC(=O)Nc1cc(N/N=C/c2ccccc2)c2[nH]c(=S)[nH]c2n1 [Compound A71],75%
8,CCCCNC(=O)Oc1ccc(C2=Nc3c(cc(NC(=O)OCC)nc3N)N[C@@H]2C)cc1 [Compound A171],7%
9,CCOC(=O)Nc1cc2[nH]c(-c3ccc(Cl)cc3)nc2c(N(CCc2ccccc2)Cc2ccccc2)n1 [Compound A4],99%
10,CCCCNC(=O)Oc1ccc(C2=Nc3c(cc(NC(=O)OCC)nc3N)N[C@H]2C)cc1 [Compound A160],10%
11,CCOC(=O)Nc1cc2[nH]cnc2c(NC(=O)OCC)n1.Cl [Compound A278],0%
12,CCOC(=O)Nc1cc(NC(c2ccccc2)c2ccccc2)c([N+](=O)[O-])c(N)n1 [Compound A264],0%
13,COC(=O)Nc1cc(NC(C)/C(=N/O)c2cccc([N+](=O)[O-])c2)c([N+](=O)[O-])c(N)n1 (centres unmarked) [Compound A177],4%
14,CCOC(=O)Nc1cc2c(c(N)n1)N=C(CN(C)c1ccc(OC)cc1)CN2 [Compound A138],20%
15,CCOC(=O)Nc1cc2c(c(N)n1)N=C1c3ccccc3CCC1O2.Cl.Cl (centres unmarked) [Compound A85],65%
16,CCOC(=O)Nc1cc(NC(c2ccccc2)c2ccccc2)c([N+](=O)[O-])c(O)n1 [Compound A298],0%
17,CCOC(=O)Nc1cc(NC(c2ccccc2)c2ccccc2)c2nc(O)[nH]c2n1 [Compound A134],23%
18,CCOC(=O)Nc1cc2c(c(N)n1)N=C(c1ccc(O)cc1)[C@H](C)N2 [Compound A164],8%
19,CCOC(=O)Nc1cc2[nH]c(-c3ccccc3F)nc2c(N(CCc2ccccc2)Cc2ccccc2)n1 [Compound A20],98%
20,COC(=O)Nc1cc(NC(C)/C(=N/O)c2ccccc2)c([N+](=O)[O-])c(N)n1 (centres unmarked) [Compound A176],4%
21,CCOC(=O)Nc1cc(Nc2ccc(Cl)cc2)c2nc(-c3ccccc3)c(-c3ccccc3)nc2n1 [Compound A257],0%
22,CCOC(=O)Nc1cc2c(c(N)n1)N=C(c1ccccc1)C(CC)N2 (centres unmarked) [Compound A306],−3%
23,CCOC(=O)Nc1cc(NCC(=O)c2ccc(C)c(C)c2)c([N+](=O)[O-])c(N)n1 [Compound A208],0%
24,CCOC(=O)Nc1cc(NCCc2ccc(S(N)(=O)=O)cc2)c([N+](=O)[O-])c(N)n1 [Compound A126],30%
25,CCOC(=O)Nc1cc(NCC(O)CN(C)c2ccccc2)c(N)c(NC(=O)OCC)n1 (centres unmarked) [Compound A169],7%

row,SMILES,% Inh
1,CCOC(=O)Nc1cc(NCC(C)CN(C)c2ccc(OC)cc2)c([N+](=O)[O-])c(N)n1 (centres unmarked) [Compound A233],0%
2,CCOC(=O)Nc1cc2c(c(N)n1)[N+](=O)OC(c1ccccc1)N[N-]2 (centres unmarked) [Compound A214],0%
3,CCOC(=O)Nc1cc(NCc2ccccc2)c([N+](=O)[O-])c(N)n1 [Compound A66],83%
4,CCOC(=O)Nc1cc(NC/C(=N/O)c2ccc(OC)cc2)c([N+](=O)[O-])c(N)n1 [Compound A182],2%
5,CCOC(=O)Nc1cc2[nH]c(-c3ccc(C)cc3)nc2c(N(CCc2ccccc2)Cc2ccccc2)n1 [Compound A145],16%
6,CCOC(=O)Nc1cc(NCCc2ccccc2)c2nc[nH]c2n1 [Compound A73],74%
7,CCOC(=O)Nc1cc(NC(C)[C@H](O)c2ccccc2)c(N)c(N)n1 (some centres unmarked) [Compound A99],56%
8,CCOC(=O)Nc1cc2[nH]c(=O)c(-c3ccccc3)nc2c(NC(c2ccccc2)c2ccccc2)n1 [Compound A195],0%
9,CCOC(=O)Nc1cc2[nH]c(-c3ccc(CC)cc3)nc2c(N(CCc2ccccc2)Cc2ccccc2)n1 [Compound A17],98%
10,CCOC(=O)Nc1cc(NCCc2ccc(S(=O)(=O)N(CC)CC)cc2)c2nccnc2n1 [Compound A252],0%
11,CCOC(=O)Nc1cc2[nH]c(-c3ccc(C)cc3)nc2c(N(CC)CC)n1 [Compound A13],98%
12,CCOC(=O)Nc1cc2c(c(N)n1)N=C(CN(C)c1ccc(C(=O)OC)cc1)CN2 [Compound A288],0%
13,CCOC(=O)Nc1cc(NCCc2ccc(S(=O)(=O)N(CC)CC)cc2)c2ncc(-c3ccc(Cl)cc3)nc2n1 [Compound A259],0%
14,CCOC(=O)Nc1cc(NC(C)C(O)COc2ccccc2)c([N+](=O)[O-])c(N)n1 (centres unmarked) [Compound A155],11%
15,CCOC(=O)Nc1nc(NC(=O)OCC)c2c(c1N)NC(C)C(c1ccccc1)=N2 (centres unmarked) [Compound A194],0%
16,CCOC(=O)Nc1cc(Cl)c2ncc(-c3ccc(Cl)cc3)nc2n1 [Compound A187],1%
17,CCOC(=O)Nc1cc2c(c(N)n1)N=C(c1ccccc1)CN2 [Compound A65],83%
18,CCOC(=O)Nc1cc(NCC(=O)c2ccc(Cl)cc2)c([N+](=O)[O-])c(N)n1 [Compound A240],0%
19,CCOC(=O)Nc1cc(NC(C)CCCN(CC)CC)c2ncc(-c3cc(OC)c(OC)c(OC)c3)nc2n1.Cl.Cl (centres unmarked) [Compound A118],40%
20,CCOC(=O)Nc1cc2c(c(N)n1)N=C(c1ccc3ccccc3c1)CS2 [Compound A97],58%
21,CCCCOC(=O)Nc1cc(NC(c2ccccc2)c2ccccc2)c2nc(-c3cc(OC)c(OC)c(OC)c3)c(-c3cc(OC)c(OC)c(OC)c3)nc2n1 [Compound A267],0%
22,CCOC(=O)Nc1cc(NC(CC)C(=O)c2ccccc2)c([N+](=O)[O-])c(N)n1 (centres unmarked) [Compound A307],−8%
23,CCOC(=O)Nc1cc(Cl)c2nc(-c3ccccc3)[nH]c2n1 [Compound A234],0%
24,CCOC(=O)Nc1cc(NC(C)/C(=N/O)c2ccc(NC)cc2)c([N+](=O)[O-])c(N)n1 (centres unmarked) [Compound A144],16%

# Same assay, conditions: Mycobacterium tuberculosis; M. tuberculosis H37Rv; at 12.5% μg/ml (so in the source); read-out: Primary Screen PI (% inhibition of growth)
row,SMILES,inhibition of growth at 12.5 µg/mL
1,"CCOC(=O)Nc1cc2nc(-c3ccccc3)c(-c3ccccc3)nc2c(OCC)n1 [Compound 3491-23, (5-Ethoxy-2,3-diphenyl-pyrido[3,4-b]pyrazin-7-yl)-carbamic acid ethyl ester]",95%

# Same assay, conditions: in words
row,SMILES,activity against M. tuberculosis H37Rv in the primary screen
1,"CCOC(=O)Nc1cc2nc(-c3ccccc3)c(-c3ccccc3)nc2c(OCC)n1 [Compound 3491-23, (5-Ethoxy-2,3-diphenyl-pyrido[3,4-b]pyrazin-7-yl)-carbamic acid ethyl ester]",demonstrated activity
